Assay results as given in patent publication US20210071229A1, “FIBRINOGEN TEST” (DSM IP Assets B.V., priority 2018, published 2021).
Several values for one entry are separate records, joined by “and”; a condition that tells them apart may be missing. Equal values may be shown once. Read-outs that look alike come from different tables or passages of the source.

Assays:
[1] = target: batroxobin (Bothrops atrox, UniProt P04971); type: biochemical, Bothrops moojeni
[2] = test system: control plasma
[3] = test system: control plasma; assay: activated Partial Thromboplastin Time (aPTT) clotting test, spiked control plasma, BCS-XP; type: biochemical

Sequence of batroxobin (P04971 25-255 limits assumed): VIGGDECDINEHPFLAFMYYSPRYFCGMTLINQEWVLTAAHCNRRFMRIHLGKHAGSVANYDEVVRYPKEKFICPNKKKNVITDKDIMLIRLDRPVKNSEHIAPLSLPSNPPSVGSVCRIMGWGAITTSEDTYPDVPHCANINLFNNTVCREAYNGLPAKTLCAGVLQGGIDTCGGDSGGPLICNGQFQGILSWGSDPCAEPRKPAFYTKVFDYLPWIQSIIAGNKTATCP

O=C(O)CN(CCN(CC(=O)O)CC(=O)O)CC(=O)O [EDTA]
interference in batroxobin-Pefachrome TH reaction [1]: failed to see significant interference

hirudin
interference in batroxobin-Pefachrome TH reaction [1]: failed to see significant interference

hydroxyethyl starch [HES]
interference in batroxobin-Pefachrome TH reaction [1]: failed to see significant interference

O=C(NC[C@H]1CN(c2ccc(N3CCOCC3=O)cc2)C(=O)O1)c1ccc(Cl)s1 [Rivaroxaban]
effect on Vmax of batroxobin-Pefachrome TH substrate [1]: very slight reduction
effect on enzyme activity of batroxobin [1]: did not significantly suppress
effect on Km of batroxobin-Pefachrome TH substrate ([1]; 38-600 ng/mL): not significantly affected
PT-test CT ([2]; 38 ng/ml in plasma): 10.74 s and 10.61 s
PT-test Mean ([2]; 38 ng/ml in plasma): 10.68 s
PT-test delay ([2]; 38 ng/ml in plasma): 6%
PT-test CT ([2]; 600 ng/ml in plasma): 19.42 s and 19.32 s
PT-test Mean ([2]; 600 ng/ml in plasma): 19.37 s
PT-test delay ([2]; 600 ng/ml in plasma): 92%
aPTT-test CT ([3]; 38 ng/ml in plasma): 39.46 s and 39.44 s
aPTT-test Mean ([3]; 38 ng/ml in plasma): 39.45 s
aPTT-test delay ([3]; 38 ng/ml in plasma): 23%
aPTT-test CT ([3]; 600 ng/ml in plasma): 80.73 s and 80.07 s
aPTT-test Mean ([3]; 600 ng/ml in plasma): 80.40 s
aPTT-test delay ([3]; 600 ng/ml in plasma): 150%

NCCCCCC(=O)O [6-aminocaproic acid]
effect on enzyme activity of batroxobin vs untreated control [1]: did not significantly influence the activity
predicted Vmax and Km vs untreated control [1]: not significantly different

aprotinin
effect on enzyme activity of batroxobin vs untreated control [1]: did not significantly influence the activity
predicted Vmax and Km vs untreated control [1]: not significantly different

CC1CNc2c(cccc2S(=O)(=O)N[C@@H](CCCNC(=N)N)C(=O)N2CC[C@@H](C)C[C@@H]2C(=O)O)C1 (some centres unmarked) [Argatroban]
effect on Vmax of batroxobin-Pefachrome TH substrate [1]: very slight reduction
effect on enzyme activity of batroxobin [1]: did not significantly suppress
effect on Km of batroxobin-Pefachrome TH substrate ([1]; 0.13-2.0 μg/mL): not significantly affected
PT-test CT ([2]; 0.13 μg/ml in plasma): 10.18 s and 10.21 s
PT-test Mean ([2]; 0.13 μg/ml in plasma): 10.20 s
PT-test delay ([2]; 0.13 μg/ml in plasma): 1%
PT-test CT ([2]; 2.0 μg/ml in plasma): 12.26 s and 12.24 s
PT-test Mean ([2]; 2.0 μg/ml in plasma): 12.25 s
PT-test delay ([2]; 2.0 μg/ml in plasma): 22%
aPTT-test CT ([3]; 0.13 μg/ml in plasma): 34.62 s
aPTT-test Mean ([3]; 0.13 μg/ml in plasma): 34.62 s
aPTT-test delay ([3]; 0.13 μg/ml in plasma): 8%
aPTT-test CT ([3]; 2.0 μg/ml in plasma): 55.77 s and 55.46 s
aPTT-test Mean ([3]; 2.0 μg/ml in plasma): 55.62 s
aPTT-test delay ([3]; 2.0 μg/ml in plasma): 73%

[H]/N=C(/N)c1ccc(NCc2nc3cc(C(=O)N(CCC(=O)O)c4ccccn4)ccc3n2C)cc1 [Dabigatran]
effect on Km of batroxobin-Pefachrome TH substrate ([1]; 31-500 ng/mL): not significantly affected
